# Measured values: US7320980B2, “Substituted pyrido(1,2-a)pyrimidines and their use as NOS inhibitors” (Gruenenthal GmbH, priority 2003, dated 2008)
# Counter-ions that a name gives are not always drawn.
# How the values were obtained:
# NO synthase = biological target: T1, NO synthase (Rattus norvegicus, UniProt P29476); assay: NOS / HTS-NOS assay (radioactive arginine conversion, rat cerebellum enzyme preparation); assay type: biochemical; conditions: rat cerebellum supernatant enzyme, [3H]-arginine substrate, 25° C.; read-out: NOS Arg IC50
# T1 construct: the supernatant was then decanted off and frozen in portions at −80° C., discarding the precipitate; from tissue; host or cells: rat cerebellum, 20,000 g supernatant of homogenate
# Description: This assay makes it possible to determine the percentage inhibition of NO synthase (hereinafter referred to as the enzyme) by a compound of the general formula II used according to the invention, optionally in the form of one of the pure stereoisomers thereof, in particular enantiomers or diastereomers, the racemates thereof or in the form of a mixture of stereoisomers, in particular the enantiomers or diastereomers, in any desired mixing ratio, or in each case in the form of the free base thereof or in the form of the physiologically acceptable salt thereof, in particular hydroperchlorate salt or in each case in the form of the solvate thereof, in particular hydrate (hereinafter referred to as the active ingredient), by measuring enzyme activity on exposure to the compound. The enzyme is here mixed under suitable conditions together with radioactively labelled arginine and the particular active ingredient. After termination of the NO formation reaction at a predetermined time, the quantity of unconverted arginine is directly or indirectly determined.
# This assay may be carried out at follows: • (a) Incubation of the enzyme with labelled arginine as the substrate in a reaction vessel, • (b) Separation of the labelled arginine from the labelled citrulline optionally arising as a product of the enzymatic reaction at a time at which the concentration of citrulline is rising, • (c) Measurement of the quantity of arginine separated in each case.
# Separation is performed by means of a filter plate membrane.
# Radioactive arginine is used as the substrate in this HTS-NOS assay. Depending on the type of microtitre plate (MTP), the assay volume may be selected in the range between 25 μl and 250 μl. Depending on the enzyme source used, cofactors and coenzymes are added. The batches are incubated in this microtitre plate (assay MTP) according to step (a) at room temperature and, depending on the enzyme activity used (units), lasts between 5 and 60 minutes. On completion of incubation (step (a)), the plate is placed in a cell harvester, which is equipped with an MTP which has a cation exchange membrane as a filter bottom (filter MTP). All the batches from the assay MTP are transferred into this filter MTP and suction filtered through a cation exchange filter plate, a paper filter loaded with phosphate groups. The filter MTP is then washed with buffer or water. This procedure binds the remaining substrate arginine onto the cation exchanger, while the enzymatically formed radioactive citrulline is quantitatively eluted. Once the filter MTP has been dried and scintillation liquid (Ready Protein, Beckmann Coulter GmbH, Krefeld, Germany) added, the bound arginine can be counted in the scintillation counter (Packard TRI-CARB Liquid Scintillation Analyzer 2000 CA, Packard Instrument, Meriden, Conn. 06450, USA). Low radioactivity indicates an uninhibited enzyme reaction. An inhibited enzyme reaction means that the radioactive arginine has not been converted. It may be concluded from this that there is then a high level of radioactivity on the filter.
# The NOS and HTS-NOS assays were performed as described above.
# Rat cerebella were used as the starting tissue. The animals were stunned and killed, the brain tissue, the cerebellum, was dissected out, 1 ml of enzyme preparation buffer (4° C.) was added per cerebellum, and the tissue was disrupted for 1 min at 6000 rpm in a Polytron homogeniser. The mixture was then centrifuged at 4° C. for 15 min at 20,000 g, and the supernatant was then decanted off and frozen in portions at −80° C., discarding the precipitate. The frozen supernatant was subsequently thawed for the assay and pipetted out onto a microtitre plate.
# 96-well MTPs with a well capacity of <250 μl were used.
# Once pipetting was complete, a lid was placed on this MTP (assay MTP) and incubation performed at 25° C. (room temperature [RT]) for 5-60 min, depending on the quantity and activity of the enzyme used (see in this connection Table 1). […]
# [1] = test system: formaldehyde-induced nociception; assay: Formaldehyde test (rat), second phase; assay type: in vivo; conditions: iv, male Sprague-Dawley rats, second (late) phase of formaldehyde test, pain rate change relative to control
# Procedure: The investigations for determining the antinociceptive action of the compounds used according to the invention of the general formula II were carried out by the formaldehyde test on male rats (Sprague-Dawley, 150-170 g, Charles River).
# In the formaldehyde test, a distinction is drawn between the first (early) phase (0-15 min after formaldehyde injection) and the second (later) phase (15-60 min after formaldehyde injection), as described in D. Dubuisson, S. G. Dennis, Pain 4, 161-174 (1977). […]
# A nociceptive reaction was induced in the freely mobile test animals by a single, subcutaneous formaldehyde injection (50 μl, 5 wt. %) into the dorsal side of the rear hind paw, the reaction being classed according to one of the following behavioural parameters: lifting and holding up the affected paw (score 1), shaking or twitching (score 2), licking and biting (score 3). The differential behaviour induced by the formaldehyde injection was recorded by observing the rats in the late phase of the formaldehyde test and assigned a variable weighting in the evaluation. Normal behaviour, in which the rat places an even load on all four paws, was recorded as a score of 0. […] The nociceptive behaviour was calculated as a “pain rate” (PR). […]
# The analgesic action of the compounds of the general formula II used according to the invention was determined as described above.
SMILES,melting point [°C],IC50 (NO synthase) [µM],ED50 [1] [mg/kg]
"CC1=CC2=NCC(C(=O)c3ccccc3)CN2C(C)=C1 (stereo not drawn) (as salt: perchlorate) [Example 6, 3-Benzoyl-3,4-dihydro-2H-6,8-dimethylpyrido[1,2-a]pyrimidinium perchlorate]",78,–,–
"CC1=CC2=NCC(C(=O)c3ccccc3)CN2C(C)=C1 (stereo not drawn) [Example 6, 3-Benzoyl-3,4-dihydro-2H-6,8-dimethylpyrido[1,2-a]pyrimidinium perchlorate]",–,8.4,–
"CC1=CC2=NCC(C(=O)c3ccc(Br)cc3)CN2C=C1 (stereo not drawn) (as salt: perchlorate) [Example 3, 3-(4′-Bromobenzoyl)-3,4-dihydro-2H-8-methylpyrido[1,2-a]pyrimidinium perchlorate]",158 to 161,–,–
"CC1=CC2=NCC(C(=O)c3ccc(F)cc3)CN2C=C1 (stereo not drawn) [Example 4, 3-(4′-Fluorobenzoyl)-3,4-dihydro-2H-8-methylpyrido[1,2-a]pyrimidinium perchlorate]",–,8.5,–
"CC1=CC2=NCC(C(=O)c3ccc(Cl)cc3)CN2C=C1 (stereo not drawn) (as salt: perchlorate) [Example 7, 3-(4′-Chlorobenzoyl)-3,4-dihydro-2H-8-methylpyrido[1,2-a]pyrimidinium perchlorate]",123 to 125,–,–
"CC1=CC2=NCC(C(=O)c3ccc(Br)cc3)CN2C=C1 (stereo not drawn) [Example 3, 3-(4′-Bromobenzoyl)-3,4-dihydro-2H-8-methylpyrido[1,2-a]pyrimidinium perchlorate]",–,14,–
"CC1=CC2=NCC(C(=O)c3ccc4ccccc4c3)CN2C(C)=C1 (stereo not drawn) [Example 2, 3-(2′-Naphthoyl)-3,4-dihydro-2H-6,8-dimethylpyrido[1,2-a]pyrimidinium perchlorate]",–,6.7,–

# Further lines, with some results ahead:
melting point [°C],IC50 (NO synthase) [µM],SMILES,ED50 [1] [mg/kg]
> 290,–,"CC1=CC2=NCC(C(=O)c3ccccc3)CN2C=C1 (stereo not drawn) (as salt: perchlorate) [Example 5, 3-Benzoyl-3,4-dihydro-2H-8-methylpyrido[1,2-a]pyrimidinium perchlorate]",–
–,13,"CC1=CC2=NCC(C(=O)c3ccc(-c4ccccc4)cc3)CN2C=C1 (stereo not drawn) [Example 8, 3-(4′-Biphenylcarbonyl)-3,4-dihydro-2H-8-methylpyrido[1,2-a]pyrimidinium perchlorate]",–
111,–,"CC1=CC2=NCC(C(=O)c3ccc(-c4ccccc4)cc3)CN2C=C1 (stereo not drawn) (as salt: perchlorate) [Example 8, 3-(4′-Biphenylcarbonyl)-3,4-dihydro-2H-8-methylpyrido[1,2-a]pyrimidinium perchlorate]",–
–,9.1,"CC1=CC2=NCC(C(=O)c3ccccc3)CN2C=C1 (stereo not drawn) [Example 5, 3-Benzoyl-3,4-dihydro-2H-8-methylpyrido[1,2-a]pyrimidinium perchlorate]",–
–,7.6,"CC1=CC=CC2=NCC(C(=O)c3ccc(-c4ccccc4)cc3)CN12 (stereo not drawn) [Example 9, 3-(4′-Biphenylcarbonyl)-3,4-dihydro-2H-6-methylpyrido[1,2-a]pyrimidinium perchlorate]",–
–,6.4,"CC1=CC2=NCC(C(=O)c3ccc(Cl)cc3)CN2C=C1 (stereo not drawn) [Example 7, 3-(4′-Chlorobenzoyl)-3,4-dihydro-2H-8-methylpyrido[1,2-a]pyrimidinium perchlorate]",–
–,1.4,"CC1=CC2=NCC(C(=O)c3ccc4ccccc4c3)CN2C=C1 (stereo not drawn) [Example 1, 3-(2′-Naphthoyl)-3,4-dihydro-2H-8-methylpyrido[1,2-a]pyrimidinium perchlorate]",7.27
